Peptide text beside a SMILES is read from it.
Experiments:
[1] = tested on: perceived sweet intensity (panelists); test: Sensory time-intensity (TI) measurement of sweetness by a trained panel; assay type: in vivo, human; conditions: for Emax of max. intensity (sensory): scale 0-100, top < 100; for sweetener concentration up to which lactisole effectively inhibited the sweetness: time-intensity curves; for EC50: Homo sapiens, asymmetric five parameter curve fit, read-out: EC50 of max. intensity (sensory); for lingering: time point at which < 50 % of maximum sweetness was reached / onset (time of first maximum intensity): at sweet intensity saturation level: 50 mM cyclamate, 0.5 mM NHDC, 5.0 mM acesulfame K, 5.0 mM aspartame, without lactisole; for mode of inhibition by lactisole (shift of dose-response curve), sensory experiments: combination with 0.46 and 0.92 mM lactisole
Text: All panelists gave their written informed consent for participating in the panel and had to complete a sensory training. […] On a last training day, the evaluation on unstructured scales and the time-dependent evaluation on the computer were trained. All panelists reported to be in good general health condition, and not being under medication or pregnant. At least one hour before every training or tasting, panelists were instructed not to smoke and not to consume intense tasting food or beverage (e.g. coffee, chili, garlic, chewing gum) and to avoid in general strong hunger or fullness as well as strong odors or perfume on test days.
Every test solution was assessed randomly at two different test days with at least 8 panelists participating per replicate. The panelists were free to choose to participate at the different test days. A maximum of five test compounds were assessed in one session. All samples were coded with three-digit random code and presented to the panelists in randomized order. On each test day, panelists were presented five sweet solutions with 0, 25, 50, 100 and 200 g/L sucrose as a scale training for the ratings from “not at all” to “very intensive” sweetness. […] The three minutes of evaluation were chosen to capture as much of the lingering as possible without wearing out the panelists during the evaluation. A total of 350 measuring time points was recorded within the pre-set time frame, especially to see differences in the first seconds of evaluation, which are important for the onset. The panelists were asked to take the sample (20 mL) into their mouth, while starting the timer and simultaneously the evaluation of sweet intensity over the time, and to spit out the sample after ten seconds while continuing the evaluation of the sweetness intensity until the end of the three minutes.
For comparison of the time-dependent properties, the following descriptors were used: the maximum intensity at the first 30 sec of evaluation as “max. intensity”, the time-point of the first maximum intensity as “onset” in sec, […], and the area under the curve from the time-intensity plots as “AUC” as a marker for the overall intensity and duration.
All sensory experiments were conducted at the Christian Doppler Laboratory for Taste Research at the Institute for Physiological Chemistry, University of Vienna, Austria, at room temperature (21 – 23 °C). • Calcium mobilization assay
The statistical analysis and graphical representation were performed with GraphPad Prism 9.0 for sensory results and with SigmaPlot 14.0 for cell experiments. To evaluate the sensory dose–response effects of ascending sweetener concentration w/o lactisole, an asymmetrical five-parameter curve (Richard́s five-parameter dose–response curve) was fitted. The data are presented as means ± SEM from at least 16 single evaluations. Statistical significance between the different test compounds and concentration-dependent effects was assessed by two-way ANOVAs with Tukey post hoc test using Graph Pad Prism. The normal distribution of the data sets was checked by evaluation of the kurtosis (between −7 to + 7) and the skewness (between −3 to + 3). Equal variance was tested using Levenés test. In case the assumptions of a normal distribution and equal variance were not met, the non-parametric ANOVA on ranks (Kruskal-Wallis Test) with Dunn's post-hoc test without the calculation of interaction was applied. A Pearson product moment correlation was conducted to investigate relationships between sensory results and cell responses of the tested sweeteners.

sweetness = tested on: sweetness; parameters: method as in Schiffman et al., 1995; conditions: compared to 5 % sucrose; ref Schiffman et al., 1995; cited from earlier work

Structure (SMILES)	Hillslope of max. intensity dose-response (sensory) ([1]; 0 mM lactisole)	Emax of max. intensity (sensory) ([1]; 0 mM lactisole)	sweetener concentration up to which lactisole effectively inhibited the sweetness ([1]; 0.46 mM lactisole)	sweetener concentration up to which lactisole effectively inhibited the sweetness ([1]; 0.92 mM lactisole)	EC50 ([1]; 0 mM lactisole) [µM]	lingering: time point at which < 50 % of maximum sweetness was reached [1] [s]	onset (time of first maximum intensity) [1] [s]	Hillslope of max. intensity dose-response (sensory) ([1]; with 0.46 mM lactisole)	Emax of max. intensity (sensory) ([1]; with 0.46 mM lactisole)	Hillslope of max. intensity dose-response (sensory) ([1]; with 0.92 mM lactisole)	Emax of max. intensity (sensory) ([1]; with 0.92 mM lactisole)	mode of inhibition by lactisole (shift of dose-response curve), sensory experiments [1]	sensory sweetness factor (sweetness)
CC1=CC(=O)NS(=O)(=O)O1 [acesulfame K]	1.43	unstable	up to 1 mM	up to 1 mM	920	44.7	4.6	2.75	71.83	1.45	73.60	–	–
O=S(=O)(O)NC1CCCCC1 [cyclamate]	2.60	96.11	up to 5.0 mM	≤ 10.0 mM	8720	60.1	5.1	2.18	92.37	2.10	unstable	competitive inhibition	around 30
COC(=O)[C@H](Cc1ccccc1)NC(=O)[C@@H](N)CC(=O)O [aspartame] (H-Asp-Phe-OMe)	2.56	97.05	≤ 1.0 mM	up to 2.0 mM	1090	71.4	5.7	1.28	99.22	1.32	100.00	–	–
COc1ccc(CCC(=O)c2c(O)cc(O[C@@H]3O[C@H](CO)[C@@H](O)[C@H](O)[C@H]3O[C@@H]3O[C@@H](C)[C@H](O)[C@@H](O)[C@H]3O)cc2O)cc1O [NHDC, neohesperidin dihydrochalcone]	0.94	97.73	up to 0.2 mM	up to 0.5 mM	56	100.7	5.1	0.89	100.00	0.82	100.00	competitive inhibition	approximately 900
